Experimental data: PMC10786919, “Design-rules for stapled peptides with in vivo activity and their application to Mdm2/X antagonists” (Nature Communications, 2024)
Converted amounts (≈) assume the structure as drawn. Where two headings read alike, the source gives them in different places. Positions of bridges follow the written chain, without caps; N, C: chain ends. Non-standard residues stand in square brackets, D forms with d. Residues, ends and D or L forms follow the SMILES beside them. dPhe(4-CF3) = N[C@H](Cc1ccc(C(F)(F)F)cc1)C(=O)O; dTrp(6-F) = N[C@H](Cc1c[nH]c2cc(F)ccc12)C(=O)O; R5 = C=CCCC[C@@](C)(N)C(=O)O

Key:
[1] = Circular dichroism (CD) helicity; assay type: physicochemical
Outline: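 Peptide dried from methanol and reconstituted at 1 mM in 1 mM HEPES pH 7.4 with 5% methanol; concentration set by A280. CD spectra recorded 300–190 nm at 25 °C in a 0.2 cm cuvette, converted to mean residue ellipticity and deconvoluted for secondary structure; duplicate means.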

[2] = Lactate dehydrogenase (LDH) release assay; assay type: cell-based
Outline: (§1)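 Geometric means of at least three independent biological runs are given for LDH release measured in HCT116 cells stably expressing a p53-driven β-lactamase reporter. Plating density was 8000 cells/well; DMSO in wells was 0.5%.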

HCT116 cells = assay: Lactate dehydrogenase (LDH) release assay; assay type: cell-based
Outline: as §1

[3] = system: p53 responsive β-lactamase reporter in HCT116 cells; assay: cells; assay type: cell-based
Outline: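 HCT116 cells stably carrying a p53-responsive β-lactamase reporter, seeded at 8000 cells/well, with 0.5% DMSO final. Reporter activity read by ToxBLAzer Dual Screen. Values are geometric means of at least three biological replicates.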

[4] = system: Jump-In T-REx CHO-K1 BLA cells; assay: cells; assay type: cell-based; settings: for EC50: read-out: TETCHO: Counterscreen EC50
[5] = Solubility assay (kinetic solubility, PBS pH 7); assay type: physicochemical
Outline: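 Next, measure peak areas of sample and standard. Finally, multiply their ratio by the standard concentration to obtain solubility (µM).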

human Mdm2 1–125 = molecular target: T1, human Mdm2 1–125 (Homo sapiens, UniProt Q00987); assay: Mdm2 binding by competitive fluorescence anisotropy assay (FP binding)
T1 construct: GST (N); His6 (internal); TEV cleavage site (ENLYFQG) (internal); made in house; host or cells: BL21 (DE3) Rosetta T1R Escherichia coli

[6] = FP binding assay KD, Tween-20 <CMC

T1 sequence (Q00987 with tags, fused parts or gaps): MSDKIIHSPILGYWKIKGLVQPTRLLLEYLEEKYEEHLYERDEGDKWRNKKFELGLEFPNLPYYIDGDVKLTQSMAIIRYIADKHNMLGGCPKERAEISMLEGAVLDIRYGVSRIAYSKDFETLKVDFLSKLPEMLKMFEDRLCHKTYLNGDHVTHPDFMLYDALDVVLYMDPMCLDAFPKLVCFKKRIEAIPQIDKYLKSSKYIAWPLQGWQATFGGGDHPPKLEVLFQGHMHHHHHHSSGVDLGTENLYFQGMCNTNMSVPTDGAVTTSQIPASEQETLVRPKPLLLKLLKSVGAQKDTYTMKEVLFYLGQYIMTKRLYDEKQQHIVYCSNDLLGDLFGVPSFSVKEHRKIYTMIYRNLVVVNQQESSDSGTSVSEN

## CC(=O)N[C@@H](CCCCN=[N+]=[N-])C(=O)NCCC(=O)N[C@@H](CC(C)C)C(=O)N[C@H](C(=O)N[C@@H](Cc1ccccc1)C(=O)N[C@]1(C)CCCCCCC=CCCC[C@@](C)(C(=O)N2CCC[C@@H]2C(=O)N2CCC[C@@H]2C(=O)N2CCC[C@@H]2C(=O)N2CCC[C@@H]2C(=O)N2CCC[C@@H]2C(=O)N2CCC[C@@H]2C(N)=O)NC(=O)[C@H](CC2CCC2)NC(=O)[C@H](CCC(N)=O)NC(=O)[C@H](C)NC(=O)[C@H](Cc2c[nH]c3ccccc23)NC(=O)[C@H](Cc2ccc(O)cc2)NC(=O)[C@H](CCC(=O)O)NC1=O)[C@@H](C)O [MP-896]
[1]
  CD % Helicity: 19.15%
[1]; circular dichroism
  Aqueous solution helicity: 19.15%
[2]; 0% FBS 4Hr, read-out: LDH: Cytotoxicity assay: EC50
  EC50: > 50.7 µM
[2]; 10% FBS 16Hr, read-out: LDH: Cytotoxicity assay: EC50
  EC50: > 50.7 µM
HCT116 cells; 0% FBS 4Hr
  LDH: Cytotoxicity assay: % Effect: -5.717%
HCT116 cells; 10% FBS 16Hr
  LDH: Cytotoxicity assay: % Effect: 1.172%
[3]; 0% FBS 4Hr
  p53 reporter assay: % Effect: 28.91%
[3]; 0% FBS 4Hr, read-out: p53 reporter assay: EC50
  EC50: > 50.4 µM
[3]; 10% FBS 16Hr
  p53 reporter assay: % Effect: 32.76%
[3]; 10% FBS 16Hr, read-out: p53 reporter assay: EC50
  EC50: > 50.4 µM
[3]; read-out: Cell EC50 (4 hr, 0% FBS), p53 reporter assay, 4 hr, 0% FBS
  EC50: > 50 µM
[3]; read-out: Cell EC50 (16 hr, 10% FBS), p53 reporter assay, 16 hr, 10% FBS
  EC50: > 50 µM
[4]; 0% FBS 4Hr
  TETCHO: Counterscreen % Effect: -4.745%
  EC50: > 50.4 µM
[4]; 10% FBS 16Hr
  TETCHO: Counterscreen % Effect: -12.59%
  EC50: > 50.4 µM
[5]
  Solubility: P.B.
[5]; pH 7, PBS
  Solubility: Poorly Behaved
Human Mdm2 1–125; Binding KD
  Kd: 0.011 µM
Human Mdm2 1–125; [6]
  Kd: 0.0109 µM

## CC(=O)N[C@@H](C(=O)N[C@H](C)C(=O)N[C@H](Cc1c[nH]c2cc(F)ccc12)C(=O)N[C@H](Cc1ccc(O)cc1)C(=O)N[C@H](C)C(=O)N[C@]1(C)CCCC=CCCC[C@](C)(C(=O)N[C@H](CC(C)C)C(=O)N[C@H](CO)C(=O)N[C@H](C)C(=O)N[C@H](C)C(=O)N[C@H](C)C(=O)N[C@H](C)C(=O)N[C@H](C)C(=O)N[C@H](C)C(=O)N[C@H](C)C(=O)N[C@H](C)C(=O)N[C@H](C)C(N)=O)NC(=O)[C@@H](CCC(N)=O)NC(=O)[C@@H](CCC(=O)O)NC(=O)[C@@H](Cc2ccc(C(F)(F)F)cc2)NC1=O)[C@H](C)O [MP-1230] (Ac-[dT][dA][dTrp(6-F)][dY][dA][R5][dPhe(4-CF3)][dE][dQ][R5][dL][dS][dA][dA][dA][dA][dA][dA][dA][dA][dA]-NH2; staple 6-10)
[1]
  CD % Helicity: 8.3%
[2]; 0% FBS 4Hr, read-out: LDH: Cytotoxicity assay EC50
  EC50: > 50.7 µM
[2]; 10% FBS 16Hr, read-out: LDH: Cytotoxicity assay EC50
  EC50: > 50.7 µM
HCT116 cells; 0% FBS 4Hr
  LDH: Cytotoxicity assay % Effect: 4.322%
HCT116 cells; 10% FBS 16Hr
  LDH: Cytotoxicity assay % Effect: -2.735%
[3]; 0% FBS 4Hr
  p53 reporter assay % Effect: 14.85%
[3]; 0% FBS 4Hr, read-out: p53 reporter assay EC50
  EC50: > 50.4 µM
[3]; 10% FBS 16Hr
  p53 reporter assay % Effect: 35.9%
[3]; 10% FBS 16Hr, read-out: p53 reporter assay EC50
  EC50: > 50.4 µM
[4]; 0% FBS 4Hr
  TETCHO: Counterscreen % Effect: 16.32%
  EC50: > 50.4 µM
[4]; 10% FBS 16Hr
  TETCHO: Counterscreen % Effect: -1.934%
  EC50: > 50.4 µM
[5]; pH 7, aqueous buffer, kinetic from dmso stock, pH 7, PBS, read-out: Solubility
  solubility kinetic: 16 µM (≈ 35.7 µg/mL)
Human Mdm2 1–125; [6]
  Kd: 0.0217 µM
